Results taken from patent publication US20220168268A1, “SMALL-MOLECULE INHIBITOR OF PD-1/PD-L1, PHARMACEUTICAL COMPOSITION THEREOF WITH PD-L1 ANTIBODY, AND APPLICATION OF SAME” (Guangzhou Maxinovel Pharmaceuticals Co., Ltd., priority 2019, published 2022).
pIC50: −log10 of the molar value.

Target: T1, PD-1/PD-L1 (Homo sapiens, UniProt Q9NZQ7)
T1 construct: unspecified kit tag (tag1 or tag2, recognised by the detection antibodies); purchased CisBio 64CUS000C-1
Assay: Homogeneous Time-Resolved Fluorescence (HTRF) PD-1/PD-L1 binding assay
Conditions: CisBio kit
Protocol: Homogenouse Time-Resolved Fluorescence (HTRF) binding assay was used to determine the binding activity of the compound of the present disclosure to PD-1/PD-L1.
The purchased kit (CisBio, #64CUS000C-1) contained the reagents required for experiments such as PD-1, PD-L1, anti-tagl-Eu, Anti-tag2-XL665, Dilute Buffer and Detection Buffer.
1. The compound was formulated to 10 concentrations with a three-fold concentration gradient with 100% DMSO.
2. The solution of the compound in DMSO was added to Dilute Buffer, and mixed evenly and then transferred to a 96-well plate.
3. PD-L1 was diluted with Dilute Buffer and added to the 96-well plate above.
4. PD-1 was diluted with Dilute Buffer, then added to the 96-well plate above and incubated at room temperature for 30 minutes.
5. One portion of anti-tag1-Eu and one portion of anti-tag2-XL665 were added to Detection Buffer, mixed evenly and transferred to the 96-well plate above.
6. The mixed solution in the 96-well plate were incubated at room temperature for 1 to 24 hours.
7. HTRF values were read by Envision.

T1 sequence (Q9NZQ7 19-238 limits assumed): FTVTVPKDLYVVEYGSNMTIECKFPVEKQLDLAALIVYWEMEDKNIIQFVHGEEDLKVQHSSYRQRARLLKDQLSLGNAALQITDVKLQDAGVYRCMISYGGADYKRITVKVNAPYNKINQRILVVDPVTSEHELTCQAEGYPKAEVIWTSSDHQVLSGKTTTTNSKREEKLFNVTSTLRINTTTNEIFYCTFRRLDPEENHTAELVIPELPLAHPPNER

Row | pIC50 | SMILES
1 | 7.85 | Cc1c(/C=C/c2cc(CNC(CO)C(=O)O)ccc2C(F)(F)F)cccc1-c1cccc(F)c1F (stereo not shown) [Compound 15, (E)-2-(3-(2-(2′,3′-difluoro-2-methylbiphenyl-3-yl)vinyl)-4-(trifluoromethyl)benzylamino)-3-hydroxypropanoic Acid]
2 | < 5.00 | Cc1c(/C=C/c2cc(CN[C@@](C)(CO)C(=O)O)ccc2C(F)(F)F)cccc1-c1ccc2nccn2c1 [Compound 36]
3 | 6.27 | Cc1nc2ccc(-c3cccc(/C=C/c4cc(CN[C@@](C)(CO)C(=O)O)ccc4C(F)(F)F)c3C)cc2o1 [Compound 43, (S,E)-3-hydroxy-2-methyl-2-(3-(2-methyl-3-(2-methylbenzo[d]oxazol-6-yl)-styryl)-4-(trifluoromethyl)benzylamino)-3-hydroxy-2-methylpropanoic Acid]
4 | 6.06 | Cc1c(/C=C/c2cc(CN[C@@](C)(CO)C(=O)O)ccc2C(F)(F)F)cccc1-c1ccc2cn(C)nc2c1 [Compound 42, (S,E)-3-hydroxy-2-methyl-2-(3-(2-methyl-3-(2-methyl-2H-indazol-6-yl)-styryl)-4-(trifluoromethyl)benzylamino)propanoic Acid]
5 | 5.89 | Cc1c(/C=C/c2cc(CN[C@@](C)(CO)C(=O)O)ccc2C(F)(F)F)cccc1-c1cn2ccnc2cn1 [Compound 37]
6 | 7.07 | Cc1c(CCc2cc(CNC(C)(CO)C(=O)O)ccc2C(F)(F)F)cccc1-c1ccccc1 (stereo not shown) [Compound 21, 2-(3-(2-(2-Methylbiphenyl-3-yl)ethyl)-4-(trifluoromethyl)benzylamino)-3-hydroxy-2-methylpropanoic Acid]
7 | 7.57 | Cc1ccc(CN[C@@](C)(CO)C(=O)O)cc1/C=C/c1cccc(-c2ccc3c(c2F)OCCO3)c1C [Compound 30, (S,E)-2-(3-(3-(5-fluoro-2,3-dihydrobenzo[b][1,4]dioxin-6-yl)-2-methylstyryl)-4-methylbenzylamino)-3-hydroxy-2-methylpropanoic Acid]
8 | 7.34 | Cc1c(/C=C/c2cc(CNC(C)(CO)C(=O)O)ccc2C(F)(F)F)cccc1-c1cccc(F)c1 (stereo not shown) [Compound 3, (E)-2-(3-(2-(3′-fluoro-2-methylbiphenyl-3-yl)vinyl)-4-(trifluoromethyl)benzylamino)-3-hydroxy-2-methylpropanoic Acid]
9 | 6.49 | Cc1c(/C=C/c2cc(CNC(C)(CO)C(=O)O)ccc2C(F)(F)F)cccc1-c1ccc(F)cc1 (stereo not shown) [Compound 6, (E)-2-(3-(2-(4′-fluoro-2-methylbiphenyl-3-yl)vinyl)-4-(trifluoromethyl)benzylamino)-3-hydroxy-2-methylpropanoic Acid]
10 | 7.59 | Cc1c(/C=C/c2cc(CNC(C)(CO)C(=O)O)ccc2C(F)(F)F)cccc1-c1cccc(F)c1F (stereo not shown) [Compound 23, (E)-2-(3-(2-(2′,3′-difluoro-2-methylbiphenyl-3-yl)vinyl)-4-(trifluoromethyl)benzylamino)-3-hydroxy-2-methylpropanoic Acid]
11 | 5.51 | COc1ccc(-c2cccc(/C=C/c3cc(CNC(C)(CO)C(=O)O)ccc3C)c2C)cc1 (stereo not shown) [Compound 2, (E)-2-((3-(2-(4′-methoxy-2-methylbiphenyl-3-yl)vinyl)-4-methylbenzyl)amino)-3-hydroxy-2-methylpropanoic Acid]
12 | 5.66 | Cc1c(/C=C/c2cc(CN[C@@](C)(CO)C(=O)O)ccc2C(F)(F)F)cccc1-c1ccccn1 [Compound 39, (S,E)-3-hydroxy-2-methyl-2-(3-(2-methyl-3-(pyridin-2-yl)styryl)-4-(trifluoromethyl)benzylamino)propanoic Acid]
13 | 7.62 | Cc1c(/C=C/c2cc(CNC(CO)C(=O)O)ccc2F)cccc1-c1ccc2c(c1)OCCO2 (stereo not shown) [Compound 12, (E)-2-(3-(3-(2,3-dihydrobenzo[b][1,4]dioxin-6-yl)-2-methylstyryl)-4-fluorobenzylamino)-3-hydroxypropanoic Acid]
14 | 7.74 | Cc1c(/C=C/c2cc(CNC(C)(CO)C(=O)O)ccc2C(F)(F)F)cccc1-c1ccc2c(c1F)OCCO2 (stereo not shown) [Compound 20, (E)-2-(3-(3-(5-fluoro-2,3-dihydrobenzo[b][1,4]dioxin-6-yl)-2-methylstyryl)-4-(trifluoromethyl)benzylamino)-3-hydroxy-2-methylpropanoic Acid]
15 | 7.70 | Cc1ccc(CN[C@@](C)(CO)C(=O)O)cc1/C=C/c1cccc(-c2ccc3c(c2F)OCCO3)c1C [Compound 26, (S,E)-2-(3-(3-(5-fluoro-2,3-dihydrobenzo[b][1,4]dioxin-6-yl)-2-methylstyryl)-4-methylbenzylamino)-3-hydroxy-2-methylpropanoic Acid]
16 | 7.21 | Cc1c(/C=C/c2cc(CNC(CO)(CO)C(=O)O)ccc2C(F)(F)F)cccc1-c1ccccc1 [Compound 19, (E)-2-(3-(2-(2-methylbiphenyl-3-yl)vinyl)-4-(trifluoromethyl)benzylamino)-3-hydroxy-2-hydroxymethylpropanoic Acid]
17 | 7.34 | Cc1c(CCc2cc(CNC(CO)C(=O)O)ccc2C(F)(F)F)cccc1-c1ccccc1 (stereo not shown) [Compound 18, 2-(3-(2-(2-Methylbiphenyl-3-yl)ethyl)-4-(trifluoromethyl)benzylamino)-3-hydroxypropanoic Acid]
18 | 6.24 | Cc1c(/C=C/c2cc(CN[C@@](C)(CO)C(=O)O)ccc2C(F)(F)F)cccc1-c1cccnc1 [Compound 40, (S,E)-3-hydroxy-2-methyl-2-(3-(2-methyl-3-(pyridin-3-yl)styryl)-4-(trifluoromethyl)benzylamino)propanoic Acid]
19 | 6.27 | Cc1c(/C=C/c2cc(CN[C@@](C)(CO)C(=O)O)ccc2C(F)(F)F)cccc1-c1cnccn1 [Compound 41, (S,E)-3-hydroxy-2-methyl-2-(3-(2-methyl-3-(pyrazin-2-yl)styryl)-4-(trifluoromethyl)benzylamino)propanoic Acid]
20 | 7.24 | Cc1ccc(CNC(C)(CO)C(=O)O)cc1/C=C/c1cccc(-c2cccc(F)c2)c1C (stereo not shown) [Compound 9]
21 | 6.37 | Cc1c(/C=C/c2cc(CNC(C)(CO)C(=O)O)cc3c2OCC3)cccc1-c1ccc2c(c1)OCCO2 (stereo not shown) [Compound 24, (E)-2-((7-(3-(2,3-dihydrobenzo[b][1,4]dioxin-6-yl)-2-methylstyryl)-2,3-dihydrobenzofuran-5-yl)methylamino)-3-hydroxy-2-methylpropanoic Acid]
22 | 7.85 | Cc1c(/C=C/c2cc(CNC(CO)C(=O)O)ccc2C(F)(F)F)cccc1-c1ccc2c(c1)OCCO2 (stereo not shown) [Compound 1, (E)-2-(3-(3-(2,3-dihydrobenzo[b][1,4]dioxin-6-yl)-2-methylstyryl)-4-(trifluoromethyl)benzylamino)-3-hydroxypropanoic Acid]
23 | 5.85 | Cc1ccc(CNC(C)(CO)C(=O)O)cc1/C=C/c1cccc(-c2ccc(F)cc2)c1C (stereo not shown) [Compound 7, (E)-2-(3-(2-(4′-fluoro-2-methylbiphenyl-3-yl)vinyl)-4-methylbenzylamino)-3-hydroxy-2-methylpropanoic Acid]
24 | 7.70 | Cc1c(/C=C/c2cc(CNC(C)(CO)C(=O)O)ccc2C(F)(F)F)cccc1-c1ccccc1F (stereo not shown) [Compound 17, (E)-2-(3-(2-(2′-fluoro-2-methylbiphenyl-3-yl)vinyl)-4-(trifluoromethyl)benzylamino)-3-hydroxy-2-methylpropanoic Acid]
25 | 6.74 | C[C@](CO)(NCc1ccc(C(F)(F)F)c(/C=C/c2cccc(-c3ccccc3)c2F)c1)C(=O)O [Compound 34, (R,E)-2-(3-(2-(2-fluorobiphenyl-3-yl)vinyl)-4-(trifluoromethyl)benzylamino)-3-hydroxy-2-methylpropanoic Acid]
